The record followed here is patent US20070202203A1, “ANTI-AGEING COMPOSITION” (L'OREAL, priority 2006, published 2007).

The experiment has as its system dermal equivalent consisting of a collagen matrix seeded with normal human fibroblasts. The experiment in a line: Dermodecontracting effect: spontaneous contraction of dermal equivalent. In kind it is cell-based. The note with it: surface area after 24 h of contraction; control = 100; manganese gluconate 0.0005%, adenosine 0.004%. The source says: These conditions are intended to mimic in vitro, the dermal contractile phenomena that occur during dermal tensing of the face, for example during facial expressions. Under these conditions, in fact, the cells spontaneously express tensile forces that induce retraction of the collagen gel. […] The measurement of this surface area makes it possible to evalue the relaxing or dermocontracting effects of the substances previously brought into contact with the dermal equivalent. […] The experiment is repeated three times. The dermal equivalents are prepared as described in Asselineau et al., Exp. Cell. Res., 1985, 159, 536-539; Models in dermatology, 1987, vol 3 pp 1-7, in the following proportions: The collagen used is collagen type I (commercial solution), but collagen type III or IV can also be used. It is extracted from rat tails or from calf skin by acid hydrolysis and conserved in an acidic medium at […]; it polymerizes naturally by heating to 37° C. and by decreasing the degree of acidity. The collagen is dialysed beforehand against successive baths of water +acetic acid. […] For this, a digital image is acquired for each treated or nontreated dermal equivalent by means of a camera (CCD camera—Iris Sony DXC—107P) and the surface area is then calculated on each image by means of an image analysis system (Zeiss Axiovision 3.0). […]

Regarding manganese gluconate, the “% contraction” value was found to be 89%.

As for `Nc1ncnc2c1ncn2[C@@H]1O[C@H](CO)[C@@H](O)[C@H]1O` [Adenosine, adenosine], the “% contraction” value was 82%.
